For one assay, the target named is dLight1.3b (Homo sapiens, UniProt P21728). Nature of the assay: DA titrations on dLight1.3b-expressing HEK293 cells (confocal fluorescence imaging). It is filed as cell-based. The protocol:
Cells were transfected at 50–60% confluency in glass-bottomed dishes (either individually or in 24-well plates) using the Effectene transfection kit (Qiagen) according to manufacturer instructions, and imaged 24–48 h after transfection. The Flp-In™ T-REx™ 293 cells (Thermo Fisher) with a stably integrated dLight1.3b cassette[48] were cultured as follows: the cells were cultured using HEK293T cell medium with the addition of Blasticidin (15 µg/ml) and Hygromycin B (200 µg/ml). To induce the expression of dLight1.3b, doxycycline (500 ng/ml) was added to the culture medium for 24–48 hours. Before imaging, cells were rinsed with 1 mL of Hank’s Balanced Salt Solution (HBSS, Life Technologies) supplemented with Ca^2+ (2 mM) and Mg^2+ (1 mM), and imaged at room temperature with a final HBSS volume of either 100 µL for each individual 1.5 cm glass bottom dish, or 500 µL for 24-well plates. Time-lapse imaging was performed on an inverted Zeiss LSM 800 confocal microscope using a 488 nm laser and a 40X oil-based objective. During imaging, ligands were added in bolus on the cells using a micropipette to reach the final specified concentrations of ligand over the cells. For quantification, except otherwise noted, regions of interest (ROI) were selected manually using the threshold function of Fiji to isolate the cell membrane. Sensor response (∆F/F) was calculated as the following: (F(t)-F_base)/F_base with F(t) being the ROI fluorescence value at each time point (t), and F_base being the mean fluorescence of the 10-time points immediately prior to ligand addition.

The target of the next assay is T1, msDRD2 (Mus musculus, UniProt P61168).
T1 construct: expressed in transfected cells; host or cells: HEK293T
The experiment in a line: NanoBit complementation assay of mini-Gi recruitment. It is filed as cell-based. The procedure:
To measure the effect of DETQ on mini-G protein recruitment by different GPCRs we used a Nanoluciferase (NanoBit)-based complementation assay[26],[27]. For this HEK293T cells were seeded in six-well plates (Techno Plastic Products) at a density of 300,000 cells per well and co-transfected with plasmids encoding either hmDRD1, msDRD1, msDRD2, msDRD5, msADRA1a, msβ2AR or ms5HT6 carrying a C-terminally fused SmBiT, in combination with the corresponding mini-G protein probe[78] (mini-Gs: for DRD1, DRD5, β2AR, 5HT6R; mini-Gq: for ADRA1a; or mini-Gi: for DRD2), which were N-terminally fused to LgBiT, in a 1:1 DNA ratio using Effectene transfection reagent (Qiagen). […] The plate was incubated at 37 °C for 30 min, before the luminescence signal was measured at 37 °C using a Tecan Spark plate reader before and after the manual addition of 25 µl of either ligand solution (final concentrations ranging from 1 nM to 100 µM), pure Fluorobrite-DMEM or 25 µl of a DETQ solution (1 µM final concentration).
For in vitro luminescence assays, ligand traces were divided by buffer traces, the area under the curve for each trace was calculated using GraphPad Prism, values were normalized and fitted as dose response curve. […] The statistical significance was determined using Welch’s ANOVA followed by Dunnett’s multiple comparison test (comparison of ligand or vehicle to ligand). […]

Assay [1] relates to 14 other human targets (including D5, D2, Beta-1, Beta-2 and 5-HT6). More on the design: method as in Hao et al., 2019. The conditions noted are these: at 10 uM; ref Hao et al., 2019; cited from earlier work.

T1 sequence (P61168 whole entry): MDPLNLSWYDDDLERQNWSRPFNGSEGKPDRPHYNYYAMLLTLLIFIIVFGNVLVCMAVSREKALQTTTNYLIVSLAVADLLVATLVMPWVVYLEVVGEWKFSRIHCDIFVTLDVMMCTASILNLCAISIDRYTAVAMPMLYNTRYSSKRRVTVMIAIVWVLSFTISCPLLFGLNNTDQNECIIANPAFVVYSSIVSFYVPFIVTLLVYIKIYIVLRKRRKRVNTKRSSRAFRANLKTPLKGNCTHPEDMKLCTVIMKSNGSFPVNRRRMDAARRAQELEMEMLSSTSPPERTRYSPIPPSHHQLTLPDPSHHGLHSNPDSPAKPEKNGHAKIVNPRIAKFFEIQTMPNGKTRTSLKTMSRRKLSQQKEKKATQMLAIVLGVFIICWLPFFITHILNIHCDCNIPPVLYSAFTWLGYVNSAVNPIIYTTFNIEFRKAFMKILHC

`C[C@H]1c2cccc(C(C)(C)O)c2C[C@H](CO)N1C(=O)Cc1c(Cl)cccc1Cl` [DETQ, 2-(2,6-dichlorophenyl)-1-((1S,3R)-3-(hydroxymethyl)-5-(2-hydroxypropan-2-yl)-1-methyl-3,4-dihydroisoquinolin-2(1H)-yl)ethan-1-one]: at dLight1.3b, the “maximal leftward shift in the EC50 of DA” value is listed as ~ 8 fold and the “sensor response to DETQ in the absence of DA” value is on record as “could not trigger a response”. For the same molecule, the “effect on the DA sensitivity of dLight1.3b” value at dLight1.3b (D1-PAM 5 μM) is recorded as “strong positive allosteric effect”. Moreover, the “sensor fluorescence in the presence of sub-maximal DA” value at dLight1.3b (DA 100 nM, DETQ 100 nM) is “strong and significant increase”. For the same molecule, the “maximal fluorescent response to a saturating concentration of DA” value at dLight1.3b (DA 100 µM, wide range of DETQ concentrations) was “not affected”. For the same molecule, the Kb on dLight1.3b (DA titrations with 1 nM to 450 nM DETQ, allosteric EC50 shift, read-out: allosteric affinity constant (Kb)) was 54 nM. The “effect on sensor responses to noradrenaline (NE)” value at dLight1.3b (DETQ 50 nM) is listed as “potentiation”. The α factor on dLight1.3b (allosteric EC50 shift fit) turned out to be 8.6. For the same molecule, at msDRD2 (DETQ 1 µM alone), the “agonist mode: direct agonist effect” value is reported as “no direct agonist effect”. The “allosteric modulator mode: effect on agonist dose-response” value on msDRD2 (DETQ 1 µM, DA) is reported as “No allosteric effect”. Further, the “activity in potentiator mode” value in assay [1] is listed as “no activity was found”.

The values above are taken from publication PMC11219860, “A chemogenetic approach for dopamine imaging with tunable sensitivity” (Nature Communications, 2024).
